Experimental findings from patent publication US4075332A (priority 1976, dated 1978) are described below.

What is called LD50 is the dose expected to kill half of the subjects tested. For orientation: mortality means the percentage killed.

Where two headings read alike, the source gives them in different places.

The nature of one series: in vivo. Conditions: rat, po.
Another series has as its system Mexican bean beetle. The series can be described thus: whole plant or invertebrate. The settings on record: Epilachna varivestis.
Series [1] has as its system Bean aphids. The series can be described thus: Aphid, Systemic. It is filed as in vivo, bean aphid. Conditions: Aphis fabae, 48 h. Here is the method:
(§1) In the insecticidal and miticidal tests, the experimental compounds were tested as aqueous emulsions. These emulsions were prepared by dissolving the compound in acetone and dispersing it in distilled water with Triton X-100, an alkylaryl polyether alcohol derived by the reaction of i-octylphenol with ethylene oxide, to give spray emulsions containing the desired concentrations of the compound. These emulsions were then used in standard laboratory tests described below.
Aphid, Systemic: Nasturtium plants infested with the bean aphid were treated by applying 20 ml. of the formulated test chemical to the soil. The degree of aphid control was rated after 2 days.

The subject of another series is House fly. The series can be described thus: whole plant or invertebrate. Conditions: Musca domestica, 48 h.
Series [2] concerns Spider mites. The series can be described thus: Mite, Systemic. It is filed as in vivo, two-spotted mite. The settings on record: Tetranychus urticae. Here is the method: as §1
Mite, Systemic: Bean plants infested with the two-spotted mites were treated by applying 20 ml. of the formulated test chemical to the soil.

Series [3] concerns Bean aphids. Kind of series: whole plant or invertebrate. The settings on record: Aphis fabae, 48 h.
For series [4], the system named is Spider mites. Kind of series: whole plant or invertebrate. The settings on record: Tetranychus urticae.
The test system of series [5] is Southern army worm. The series can be described thus: whole plant or invertebrate. Conditions: Spodoptera eridania, read-out: Mortality, % - Southern ArmyWorm.
The subject of a further series is Root-knot nematode. Conditions: in vivo.
Another series concerns Corn rootworm larvae. The series can be described thus: whole plant or invertebrate. Conditions: soil, 120 h.
Series [6] deals with Southern army worm. The settings on record: in vivo.
Where [7] appears, read: read-out: Mortality, % - Mexican Bean Beetles.
Setting [8] is: read-out: Mortality, % - Bean Aphids Systemic.
[9] abbreviates: read-out: Mortality, % - Spider Mites Systemic.
[10] abbreviates: read-out: Mortality, % - Bean Aphids Contact.
[11] abbreviates: 48 h, read-out: Mortality, % - Spider Mites Contact.
The mark [12] stands for this setting: read-out: Mortality, % - Mexican Bean Beetle.
Where [13] appears, read: read-out: Mortality Produced, % - Mex.Bean Beetle.
Setting [14] is: read-out: Mortality Produced, % - Bean Aphids Systemic.
Where [15] appears, read: read-out: Mortality Produced, % - House Flies.
Where [16] appears, read: read-out: Mortality Produced, % - Spider Mites Systemic.
[17] abbreviates: read-out: Mortality Produced, % - Bean Aphids Contact.
Setting [18] is: 48 h, read-out: Mortality Produced, % - Spider Mites Contact.
[19] abbreviates: read-out: Mortality Produced, % -.

For the molecule `CCCSCCSP(=O)(OCC)SCCC` (centres unmarked) [2 (CIP)], the LD50 at 336 h in “in vivo” amounted to 215 mg/kg.

For `CCCSCCSP(=O)(OCC)SCCC` (centres unmarked) [Example 2, O-Ethyl S-1-Propyl S'-2-n-Propylthioethyl Dithiophosphate], the mortality at 250 ppm in the series with Mexican bean beetle (setting [7]) was 100%; with Bean aphids [1] (setting [8]) it was 75%; in the series on House fly (read-out: Mortality, % - House Flies), 100%; in the series with Spider mites [2] (setting [9]) it was 100%; in the series with Bean aphids [3] (setting [10]) it was 90%; in the series on Spider mites [4] (setting [11]) it was 100%.

Regarding `CCCSP(=O)(OCC)SCCSC(C)C` (centres unmarked) [Example 3, O-Ethyl S-1-Propyl S'-2-i-Propylthioethyl Dithiophosphate], the mortality at 250 ppm was found to be 100% in the series on Mexican bean beetle (setting [7]); 100% in the series with Southern army worm [5]; 85% with Spider mites [2] (setting [9]); 70% in the series with Bean aphids [3] (setting [10]); 100% in the series with Spider mites [4] (setting [11]).

`CCCSP(=O)(OCC)SCCSc1ccc(Cl)cc1` (centres unmarked) [Example 5, O-Ethyl S-1-Propyl S'-2-p-Chlorophenylthioethyl Dithiophosphate]: the mortality at 250 ppm with Mexican bean beetle (setting [7]) was 100%; in the series on Bean aphids [1] (setting [8]), 10%; with Spider mites [2] (setting [9]), 40%; in the series on Bean aphids [3] (setting [10]) it was 95%; with Spider mites [4] (setting [11]) it was 100%.

Regarding `CCCSP(=O)(OCC)SCCS(C)(=O)=O` (centres unmarked) [Example 7, O-Ethyl S-1-Propyl S'-(2-Methylsulfonylethyl) Dithiophosphate], the 50% lethal dose (LD50) at 336 h in “in vivo” is more than 100 mg/kg. Moreover, the mortality at 250 ppm with Mexican bean beetle (setting [12]), with Bean aphids [1] (setting [8]), in the series with Southern army worm [5], in the series with Spider mites [2] (setting [9]), with Bean aphids [3] (setting [10]) and in the series with Spider mites [4] (setting [11]) was 100% throughout. Also, in the series on Root-knot nematode, the “Nematode Control,% at 25 lb/acre” value was found to be 100%.

With `CCCSP(=O)(OCC)SCC[S+]([O-])C(C)C` (centres unmarked) [Example 8, O-Ethyl S-1-Propyl S'-2-i-Propylsulfinylethyl Dithiophosphate], the mortality at 250 ppm was 100% with Mexican bean beetle (setting [12]); 90% in the series with Southern army worm [5]; 90% with Spider mites [2] (setting [9]); 100% in the series with Bean aphids [3] (setting [10]); 95% in the series on Spider mites [4] (setting [11]). In the series with Root-knot nematode, the “Nematode Control,% at 25 lb/acre” value came out at 75%.

On to `CCCSP(=O)(OCC)SCC(C)S(C)(=O)=O` (centres unmarked) [Example 9, O-Ethyl S-1-Propyl S'-2-Methylsulfonylpropyl Dithiophosphate], for which the mortality at 250 ppm worked out at 100% in the series with Mexican bean beetle (setting [12]); 95% with Bean aphids [1] (setting [8]); 100% in the series with Southern army worm [5]; 90% with Spider mites [2] (setting [9]); 90% with Bean aphids [3] (setting [10]); 90% with Spider mites [4] (setting [11]). Besides, the “Nematode Control,% at 25 lb/acre” value in the series with Root-knot nematode came to 80%.

As to `CCCSP(=O)(OCC)SCC(C)SC(C)C` (centres unmarked) [Example 35, O-Ethyl S-1-Propyl S'-2-i-Propylthiopropyl Dithiophosphate], in the series with Corn rootworm larvae (read-out: Corn Rootworm Mortality,%), the mortality at 2.5 ppm turned out to be 70%. Moreover, the mortality at 50 ppm came to 100% in the series with Mexican bean beetle (read-out: Mexican Bean Beetles Mortality,%) and 50% in the series with Bean aphids [3] (read-out: Bean Aphids Mortality,%). Further, the “Nematode Control,%” value with Root-knot nematode was 100%. Besides, in the series with Southern army worm [6], the “S.Armyworm Mortality,%” value worked out at 100%. For the same molecule, the mortality at 10 ppm in the series with Spider mites [4] (read-out: Spider Mites Mortality,%) worked out at 100%.

For the molecule `CCOP(=O)(SCC(C)C)SCC(C)SC` (centres unmarked) [Example 37, O-Ethyl S-2-Methylpropyl S'-2-Methylthiopropyl Dithiophosphate], the mortality at 50 ppm is 100% with Mexican bean beetle (setting [13]); 70% in the series with Bean aphids [1] (setting [14]); 45% in the series on House fly (setting [15]); 100% in the series on Spider mites [2] (setting [16]); 10% in the series on Bean aphids [3] (setting [17]); 60% with Spider mites [4] (setting [18]). Moreover, the mortality at 250 ppm with Mexican bean beetle (setting [13]), in the series with Bean aphids [1] (setting [14]), with House fly (setting [15]), in the series with Spider mites [2] (setting [16]), with Bean aphids [3] (setting [17]) and in the series with Spider mites [4] (setting [18]) was 100% in each case.

Consider `CCCSP(=O)(OCC)SCC(CC)SC` (centres unmarked) [Example 38, O-Ethyl S-1-Propyl S'-2-Methylthiobutyl Dithiophosphate], for which, in the series with Corn rootworm larvae (read-out: Corn Rootworm Mortality, % at 2.5 ppm), the mortality at 2.5 ppm amounted to 40%. The mortality at 50 ppm worked out at 10% with Mexican bean beetle (read-out: Mortality Produced at 50 ppm, % - Mexican Bean Beetles); 100% with House fly (read-out: Mortality Produced at 50 ppm, % - Houseflies); 100% with Bean aphids [3] (read-out: Mortality Produced at 50 ppm, % - Bean Aphids); 100% in the series on Spider mites [4] (read-out: Mortality Produced at 50 ppm, % - Spider Mites). In addition, the “Nematodes Control % at 25 lb/acre” value with Root-knot nematode was found to be 90%. Further, the “Mortality Produced at 50 ppm, % - Southern Army Worm” value in the series with Southern army worm [6] (southern armyworm) was 80%.

Regarding `CCCSP(=O)(OC)SCC(C)SC` (centres unmarked) [Example 40, O-Methyl S-1-Propyl S'-2-Methylthiopropyl Dithiophosphate], the mortality at 50 ppm was found to be 0% in the series on Mexican bean beetle (setting [13]); 100% in the series on Bean aphids [1] (setting [14]); 100% in the series with House fly (setting [15]); 100% in the series on Spider mites [2] (setting [16]); 100% with Bean aphids [3] (setting [19]); 100% in the series with Spider mites [4] (setting [18]). Further, the mortality at 250 ppm in the series on Mexican bean beetle (setting [13]), in the series on Bean aphids [1] (setting [14]), with House fly (setting [15]), in the series on Spider mites [2] (setting [16]), in the series with Bean aphids [3] (setting [19]) and in the series with Spider mites [4] (setting [18]) was 100% in each case.

For the molecule `CCCCSP(=O)(OCC)SCC(C)SC` (centres unmarked) [Example 41, O-Ethyl S-1-Butyl S'-Methylthiopropyl Dithiophosphate], the mortality at 50 ppm in the series with Mexican bean beetle (setting [13]) amounted to 80%; in the series on Bean aphids [1] (setting [14]), 0%; in the series with House fly (setting [15]), 0%; in the series with Spider mites [2] (setting [16]) it was 0%; in the series with Bean aphids [3] (setting [17]), 60%; with Spider mites [4] (setting [18]), 100%. In addition, the mortality at 250 ppm in the series on Mexican bean beetle (setting [13]) came to 100%; in the series on Bean aphids [1] (setting [14]) it was 40%; with House fly (setting [15]), 100%; with Spider mites [2] (setting [16]) it was 100%; in the series on Bean aphids [3] (setting [17]), 100%; in the series on Spider mites [4] (setting [18]), 100%. In addition, the “Mortality Produced, % - S.Army Worm” value with Southern army worm [6] (southern armyworm) came out at 0%.

With `CCOP(=O)(SCC(C)SC)SC(C)C` (centres unmarked) [Example 42, O-Ethyl S-2-Propyl S-2-Methylthiopropyl Dithiophosphate], the mortality at 50 ppm is 100% with Mexican bean beetle (setting [13]); 20% in the series on Bean aphids [1] (setting [14]); 0% in the series with House fly (setting [15]); 0% in the series with Spider mites [2] (setting [16]); 50% with Bean aphids [3] (setting [17]); 100% in the series on Spider mites [4] (setting [18]). The mortality at 250 ppm was 100% in the series on Mexican bean beetle (setting [13]); 80% with Bean aphids [1] (setting [14]); 100% in the series with House fly (setting [15]); 100% with Spider mites [2] (setting [16]); 100% in the series on Bean aphids [3] (setting [17]); 100% in the series with Spider mites [4] (setting [18]).

Take `CCCOP(=O)(SCCC)SCC(C)SC` (centres unmarked) [Example 43, O,S-Di-n-propyl S'-2-Methylthiopropyl dithiophosphate]: the mortality at 50 ppm with Mexican bean beetle (setting [13]) turned out to be 80%; in the series on Bean aphids [1] (setting [14]), 0%; in the series with House fly (setting [15]), 70%; in the series with Spider mites [2] (setting [16]) it was 0%; in the series with Bean aphids [3] (setting [19]) it was 80%; in the series on Spider mites [4] (setting [18]), 50%. Further, the mortality at 250 ppm was found to be 100% in the series on Mexican bean beetle (setting [13]); 20% with Bean aphids [1] (setting [14]); 100% with House fly (setting [15]); 100% in the series on Spider mites [2] (setting [16]); 80% in the series on Bean aphids [3] (setting [19]); 100% with Spider mites [4] (setting [18]). The “Mortality Produced, % - S.Army Worm” value in the series on Southern army worm [6] (southern armyworm) was determined as 0%.

In the case of `CCOP(=S)(OCC)SCSc1ccc(Cl)cc1` [Trithion, reference compound], in the series on Mexican bean beetle (read-out: Mexican Bean Beetle Larvae Mortality, %), the mortality at 100 ppm was found to be 90%. In addition, in the series on Southern army worm [6] (southern armyworm), the “Southern Army Worm Mortality, %” value was 0%. Also, the mortality at 20 ppm in the series with House fly (read-out: House Fly Spray Mortality, % (at 20 ppm)) was 80%.

As for `CCOP(=O)(SCC)SCCSCC` (centres unmarked) [reference compound], in “in vivo”, the median lethal dose (LD50) at 336 h stood at 100 mg/kg.

Consider `CCOP(=S)(OCC)SCC(C)SC` (centres unmarked) [reference compound], for which, in the series “in vivo”, the 50% lethal dose (LD50) at 336 h lay within 25 to 50 mg/kg.

With `CCOP(=S)(OCC)SCC(C)SCC` (centres unmarked) [reference compound], the LD50 at 336 h in “in vivo” was in the range of 25 to 50 mg/kg.
